Test results: ChEMBL document CHEMBL1629425, “Antibacterial prenylated acylphloroglucinols from the fern Elaphoglossum yungense” (2010)
Values after ≈ are worked out from the molar mass of the structure shown. Active and inactive are the calls of the source. The rule behind the calls is not given here.

Legend:
Staphylococcus aureus [1] = experiment: increase in biofilm formation of Staphylococcus aureus ATCC 6738 at 10 ug/ml relative to control; assay type: functional, organism-based
Staphylococcus aureus [2] = experiment: Antibacterial activity against Staphylococcus aureus ATCC 6738 after 24 hrs by Broth micro dilution method; assay type: functional; conditions: ATCC 6738, 24 h
Staphylococcus aureus [3] = experiment: Antibacterial activity against Staphylococcus aureus ATCC 6738 assessed as growth inhibition at 10 ug/ml after 24 hrs by Broth micro dilution method relative to control; assay type: functional; conditions: ATCC 6738, 24 h, read-out: GI
Pseudomonas aeruginosa [4] = experiment: Antibacterial activity against Pseudomonas aeruginosa ATCC 27853 after 24 hrs by Broth micro dilution method; assay type: functional; conditions: ATCC 27853, 24 h
Pseudomonas aeruginosa [5] = experiment: Antibacterial activity against Pseudomonas aeruginosa ATCC 27853 assessed as growth inhibition at 10 ug/ml after 24 hrs by Broth micro dilution method relative to control; assay type: functional; conditions: ATCC 27853, 24 h, read-out: GI

SMILES	MIC (Staphylococcus aureus [2])	MIC (Pseudomonas aeruginosa [4])	Activity (Staphylococcus aureus [1])	MBC (Staphylococcus aureus [2])	inhibition of growth at 10 µg/mL (Staphylococcus aureus [3])	MBC (Pseudomonas aeruginosa [4])	inhibition of growth at 10 µg/mL (Pseudomonas aeruginosa [5])
CCCC(=O)c1c(O)c(CC=C(C)C)c(O)c(CC2=C(O)C(C)(C/C=C(\C)CCC=C(C)C)C(O)=C(C(C)=O)C2=O)c1O (stereo not given) [YUNGENSIN D]	100 µg/mL (≈ 168 µM)	50 µg/mL (≈ 84.1 µM)		> 200 µg/mL	83%	100 µg/mL (≈ 168 µM)	86%
CCCC(=O)c1c(O)c(C/C=C(\C)CCC=C(C)C)c(O)c(CC2=C(O)C(C)(C/C=C(\C)CCC=C(C)C)C(O)=C(C(C)=O)C2=O)c1O (stereo not given) [YUNGENSIN E]	100 µg/mL (≈ 151 µM)	100 µg/mL (≈ 151 µM)	inactive	200 µg/mL (≈ 302 µM)	87%	200 µg/mL (≈ 302 µM)	87%
CCCC(=O)c1c(O)c2c(c(CC3=C(O)C(C)(C/C=C(\C)CCC=C(C)C)C(O)=C(C(C)=O)C3=O)c1O)OC(C)(C)C=C2 (stereo not given) [YUNGENSIN F]	50 µg/mL (≈ 84.4 µM)	50 µg/mL (≈ 84.4 µM)	inactive	100 µg/mL (≈ 169 µM)	93%	50 µg/mL (≈ 84.4 µM)	86%

The next lines start with results.

MIC (Staphylococcus aureus [2])	MIC (Pseudomonas aeruginosa [4])	SMILES	Activity (Staphylococcus aureus [1])	MBC (Staphylococcus aureus [2])	inhibition of growth at 10 µg/mL (Staphylococcus aureus [3])	MBC (Pseudomonas aeruginosa [4])	inhibition of growth at 10 µg/mL (Pseudomonas aeruginosa [5])
10 µg/mL (≈ 16.9 µM)	10 µg/mL (≈ 16.9 µM)	CCCC(=O)c1c(O)c(CC2=C(O)C(C)(C/C=C(\C)CCC=C(C)C)C(O)=C(C(C)=O)C2=O)c(O)c2c1OC(C)(C)C=C2 (stereo not given) [YUNGENSIN A]	inactive	50 µg/mL (≈ 84.4 µM)	99%	50 µg/mL (≈ 84.4 µM)	99%
10 µg/mL (≈ 16.1 µM)	10 µg/mL (≈ 16.1 µM)	CCCCCC(=O)c1c(O)c(CC2=C(O)C(C)(C/C=C(\C)CCC=C(C)C)C(O)=C(C(C)=O)C2=O)c(O)c2c1OC(C)(C)C=C2 (stereo not given) [YUNGENSIN B]	inactive	100 µg/mL (≈ 161 µM)	99%	50 µg/mL (≈ 80.5 µM)	99%
50 µg/mL (≈ 75.7 µM)	50 µg/mL (≈ 75.7 µM)	CCCC(=O)c1c(O)c(CC2=C(O)C(C)(C/C=C(\C)CCC=C(C)C)C(O)=C(C(C)=O)C2=O)c(O)c2c1OC(C)(CCC=C(C)C)C=C2 (stereo not given) [YUNGENSIN C]		100 µg/mL (≈ 151 µM)	92%	50 µg/mL (≈ 75.7 µM)	87%
